Test results as given in US20250034139A1, “AMINE COMPOUNDS HAVING ANTI-INFLAMMATORY, ANTIFUNGAL, ANTIPARASITIC, AND ANTICANCER ACTIVITY” (PHARMA CINQ, LLC, priority 2013, published 2025).
Converted amounts (≈) assume the structure as drawn. Where two headings read alike, the source gives them in different places.

Experiments:
[1] = tested on: Cryptococcus neoformans (serotype A); experiment: Example L: Cryptococcus neoformans (serotype A) growth inhibition; type: cell-based; settings: OD of 26 hour reading, 30° C., XLfit; for IC50: read-out: IC50, uM (concentration for 50% of inhibition)
Protocol: Cryptococcus neoformans (serotype A) were plated in 96 well plates with 144 μl/well of 5×10e5 CFU/ml in YPD growth medium. Diluted compounds were then added to each well with concentration ranged from 0.05 to 10 μM as final concentration in duplicates. The plates were inoculated at 30° C. Two readings of OD at 600 nm were measured after 18 hr and […] treatments.
C12-imidazol had relative weak activity against Cryptococcus serotype A at low concentration. Data plotted was based on 26 hour reading because 18 hour reading was too low.
• 1. Pick a single colony of Cryptococcus from the Sabouraud Dextrose agar plate using the inoculum loop and inoculate into a 125 ml flask containing 25 ml of YPD growth medium • 2. Incubate at 30° C. with shaking at 220 rpm for 24 hours with loosen lid to allow air in and facilitates growth. • 3. Examine an aliquot of the culture under a microscope for yeast cell morphology and lack of bacterial contamination. • 4. Dilute the overnight culture with YPD medium at 1:100 dilution and count the number of cells as 8×10^6 cfu/ml. • 5. Make a final concentration of cells suspension at 5×10^5 cfu/ml in YPD medium after the stock culture had been stored at 4° C. for 3 days. • 6. Plate 144 μl/well of 5×10^5 cfu/ml cell suspension on 96-well plates. Part-II: Cryptococcus Growth Inhibition Testing with Compounds • 1. From 10 mM DMSO stock solutions, make serial dilutions of compounds to 0.0013, 0.0025, 0.0125, 0.025, 0.05, 0.125 and 0.25 mM solution • 2. Add 6 ul each of diluted compound solutions per well in duplicates. The final concentrations were 0, 0.05, 0.1, 0.5, 1.0, 2.0, 5.0 and 10 micromolar. • 3. Incubated all plates at 30° C. overnight with 175 rpm shaking. • 4. Read absorbance at OD600 after 18 and 26 hours for each plate. • 5. Calculated the % inhibition and IC50 of each compound against the untreated cell.

[2] = tested on: THP-1 cells; experiment: Example D: LPS-triggered THP-1 cell death assay, acute/5-hour and chronic/48-hour; type: cell-based, Human; settings: for Viable cell percent change, Chronic/48-hour, Mean: 10 ng/ml LPS, 0.1 μM test compound
Protocol: Compounds of the invention were tested at 0.1 μM versus AC in the LPS-triggered THP-1 cell death assay. Both acute/5-hour and chronic/48-hour phases of cell death were assessed. Compounds were screened in batches with DMSO as the negative control and AC as the high activity control.

[3] = tested on: Cryptococcus neoformans (serotype D); experiment: Example K: Cryptococcus neoformans (serotype D) growth inhibition; type: cell-based; settings: OD of 48 hour reading, 37° C., tested 4 to 60 μM, XLfit; for IC50: read-out: IC50 (concentration for 50% of inhibition)
Protocol: Cryptococcus neoformans (serotype D) were plated in 96 well plates with 144 μl/well of 8×10e5 CFU/ml in YM growth medium. Diluted compounds were then added to each well with concentration ranged from 4 to 60 μM as final concentration in duplicates. The plates were inoculated at 37° C. for total of 48 hours. Two readings of OD at 600 nm were measured after 30 and 48 hour treatments.
• 1. Pick a single colony of Cryptococcus from the YM agar plate using the inoculum loop and inoculate into a 125 ml flask containing 25 ml of YM growth medium. • 2. Incubate at 37° C. with shaking at 220 rpm for 24 hours with loosen lid to allow air in and facilitates growth. • 3. Examine an aliquot of the culture under a microscope for yeast cell morphology and lack of bacterial contamination. • 4. Dilute the overnight culture with YM medium at 1:100 dilution and count the number of cells as 1×10^6 cfu/ml. • 5. Make a final concentration of cells suspension at 8×10^5 cfu/ml in YM medium. • 6. Plate 144 μl/well of 8×10^5 cfu/ml cell suspension on 96-well plates. Part-II: Cryptococcus Growth Inhibition Testing with Compounds • 1. From 10 mM DMSO stock solutions, make serial dilutions of compounds to 0.1, 0.2, 0.3, 0.5, 1.0 and 1.5 mM solution. • 2. Add 6 ul each of diluted compound solutions per well in duplicates. The final concentrations were 0, 4, 8, 12, 20, 40 and 60 micromolar. • 3. Incubated all plates at 37° C. overnight (30 hours) with 150 rpm shaking. • 4. Read absorbance at OD600 for each plate. • 5. Leave plates in 37° C. incubator for another day and read absorbance at OD600 again at 48 hours to ensure the inhibitory effect of the compounds. • 6. Calculated the % inhibition and IC50 of each compound against untreated cells.

[4] = tested on: PC3 human prostate cancer cells; experiment: Example S: in vitro anticancer screen, PC-3 cells, Wst1; type: cell-based; settings: Homo sapiens, PC-3, 20 h, read-out: PC-3, percent of cancer cell survival relative to vehicle treated cells
How it was run: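 PC-3 cells, 2×10^4 cells/well, exposed ~20 h to vehicle or compound at 0.4, 0.5 or 2.5 μM as specified per compound. Wst1 dye added for 2 h; absorbance 450 nm (reference 630 nm), triplicates. Values are percent cell survival versus vehicle-treated cells.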

[5] = tested on: 4T1 murine breast cancer cells; experiment: Example S: in vitro anticancer screen, 4T1 cells, Wst1; type: cell-based, mouse; settings: Mus musculus, 4T1, 18 h
How it was run: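 4T1 cells seeded at 1×10^4/well were exposed to compound at 1 μM or 5 μM for 18 hr after plating. Wst1 tetrazolium dye was then added for about 2 hr and absorbance read at 450 nm (reference 630 nm). Values are percent survival relative to vehicle-treated cells.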

[6] = tested on: PC-3 prostate cancer cells; experiment: Example T: sensitisation of PC-3 cells to doxorubicin, oxaliplatin, paclitaxel or vincristine, Wst1; type: cell-based, human
[7] = tested on: 4T1 mouse mammary breast cancer cells; experiment: Example O: syngeneic 4T1 breast cancer growth in Balb/C mice; type: in vivo; settings: 4T1 in female Balb/C mice
Protocol: Cancer models in mice generally either involve syngeneic murine tumors in immunocompetent mice or xenografts of human tumors in immunocompromised mice. […] Mice received test compounds by oral gavage in 1% hydroxypropylmethylcellulose from day 2 until day 30. Tumor growth was assessed by caliper measurements twice per week and tumor weight after necropsy, and body weight was also monitored. Treatment groups were: • 1. […] HPMC) • 2. CI (120 μmol/kg/day) • 3. BA (120 μmol/kg/day) • 4. CP (120 μmol/kg/day) • 5. CQ (120 μmol/kg/day) • 6. AA (120 μmol/kg/day) • 7. AC (120 μmol/kg/day)

[8] = tested on: S. cerevisiae; experiment: Example I: Saccharomyces cerevisiae growth inhibition (OD 600 nm); type: cell-based; settings: 18 hour incubation at 30° C., OD 600 nm, XLfit
Protocol: An overnight culture of S. cerevisiae was dilution in YPD broth to concentration of 40,000/ml and 150 μl/well was plated in 96 well plates. Compounds were then added to each well with concentration ranged from 4 to 50 μM as final concentration. The plates were inoculated at 30° C. overnight with shaking at 220 rpm and absorbance at 600 nm was read after 18 hour incubation.
• 1. One days prior to the inoculum preparation, pick a single colony of S. cerevisiae from the Sabouraud Dextrose Agar plate using the inoculum loop and inoculate into a 50 mL tube containing 10 ml of YPD growth medium • 2. Incubate at 30° C. with shaking at 220 rpm for 24 hours with loosen lid to allow air in and facilitates growth. • 3. Examine an aliquot of the culture under a microscope for yeast cell morphology and lack of bacterial contamination. • 4. Dilute the overnight culture with YPD medium at 1:30 dilution (70 ul to 2.1 ml) and count the number of cells as 4,230,000/ml. • 5. Mix 620 μl of 1:30 dilution and 64.4 ml YPD to make final concentration of 40,000/ml cells • 6. Plated 144 μl/well in four 96-well plates.
• 1. From 10 mM DMSO stock solutions, make serial dilutions of compounds to 0.1, 0.2, 0.3, 0.63 and 1.25 mM solutions • 2. Add 6 μl each of diluted compound solutions per well in duplicates. The final concentrations were 0, 4, 8, 12, 25 and 50 micromolar. • 3. Incubated all plates at 30 C for overnight (˜18 hours) with 220 rpm shaking. • 4. Read absorbance at OD600 for each plate on Spectra Max Plus plate reader. • 5. Calculate the % inhibition of each compound against the DMSO treated cell and plotted.

[9] = tested on: Trichophyton rubrum; experiment: Example J: Trichophyton rubrum growth inhibition, scoring by eye; type: cell-based; settings: 6 days at 30° C., tested 6 to 40 μM; read-out: MIC, μM (maximum inhibition concentration, scoring by eye)
Protocol: Trichophyton grown on two agar plates were collected by scraping into 10 ml saline and filtered through 8 μm filters. […] This experiment included some active compounds from previous experiment and added several untested compounds. […] Following table listed the maximum inhibition concentration (MIC) based on scoring by eye. Scrape frozen Trichophyton culture from ATCC vial and suspended in 100 μl PDB, and then plate on a PDA plate. Incubate plate at 30 C for 4 days. The plate was covered almost full. […] Take OD of collected solution at 520 nm and 600 nm: […] Part-II: […] Add 6 μl each of diluted compound solutions per well in triplicates. […] Wrap the plates with […] incubate all plates at 30° C. for 6 days. • Take picture of the plates on KODAK imager with 17 captures of 1.5 sec/capture for total of 25.5 second exposure.

With `CCCCCCCCCCOc1ccc(CNc2ncnc3ccccc23)cc1` [BN, N-[4-(Decyloxy)benzyl]quinazolin-4-amine] as the compound, how does the IC50 ([1]; Cryptococcus neoformans) read?
Its IC50 is 3.73 µM.

What about the MIC ([1]; Cryptococcus neoformans, read-out: MIC, uM (concentration for maximum - 99% of inhibition)) of the same compound?
Its MIC is 56.1 µM (≈ 22 µg/mL).

What about the “Viable cell percent change, Chronic/48-hour, Mean” value [2] of the same compound?
The value was 60.91%.

What about the IC50 ([3]; Cryptococcus deneoformans) of the same compound?
The IC50 was 1030 nM.

Which results are given for `CCCCOCCCCCCCCNc1ccnc2ccccc12` [CI, N-(8-Butoxyoctyl)quinolin-4-amine]?
viability at 0.4 µM [4]: 77.9%; Viable cell percent change, Chronic/48-hour, Mean [2]: 28.46%; activity relative to AC in the LPS-triggered THP-1 cell death assay, in words ([2]; 0.1 μM, 5-hour and 48-hour time points): equivalent activity to AC at both the 5-hour and 48-hour time points; viability at 1 µM ([5]; read-out: 4T1 1 μM, percent of cancer cell survival relative to vehicle treated cells): 28.3%; viability at 5 µM ([5]; read-out: 4T1 5 μM, percent of cancer cell survival relative to vehicle treated cells): 19.1%; viability at 0.4 µM ([6]; Homo sapiens, PC-3, 72 h, read-out: No Chemo: percent cell survival): 77.9%; Doxorubicin 3.5 μM: percent cell survival ([6]; PC-3 cells, compound 0.4 μM + doxorubicin 3.5 μM, 72 hours, chemotherapy agent alone normalized to 100%): 67.6%; Oxaliplatin 100 μM: percent cell survival ([6]; PC-3 cells, compound 0.4 μM + oxaliplatin 100 μM, 72 hours, chemotherapy agent alone normalized to 100%): 21.8%; Paclitaxel 50 μM: percent cell survival ([6]; PC-3 cells, compound 0.4 μM + paclitaxel 50 μM, 72 hours, chemotherapy agent alone normalized to 100%): 48.7%; Vincristine 100 nM: percent cell survival ([6]; PC-3 cells, compound 0.4 μM + vincristine 100 nM, 72 hours, chemotherapy agent alone normalized to 100%): 33.8%; Final Tumor Volume ([7]; 120 μmol/kg/day oral gavage, day 2 to day 30): 702 ± 244 mm^3; Δ BW % ([7]; 120 μmol/kg/day oral, final vs initial body weight): −5.5%; Final Body Weight ([7]; 120 μmol/kg/day oral, final, in g (unit assumed)): 20.6 ± 0.6; Initial Body Weight ([7]; 120 μmol/kg/day oral, initial (baseline)): 21.8 ± 0.8 g

How did the “MIC, uM (99% of inhibition of fungal growth)” value [8] turn out when `CCCCCCCCCCCCn1ccnc1` [Compound C12-Im, reference compound] was run?
Its value is 29.04 µM.

What about the IC50 ([8]; read-out: IC50, uM (50% inhibition of fungal growth)) of the same compound?
The IC50 was 15.2 µM.

What about the “MIC, uM (concentration for maximum - 99% of inhibition)” value [1] of the same compound?
Its value is 10.83 µM.

What about the IC50 [1] of the same compound?
Its IC50 is 3.67 µM.

What about the “MIC (concentration for maximum-99% of inhibition)” value [3] of the same compound?
Its value is 20.54.

And the IC50 [3]?
Its IC50 is 1810 nM.

And the MIC [9]?
Its MIC is 18 µM (≈ 4.26 µg/mL).
